Reference: the supplement of paper PMC10307832

What was measured:
Assay in all cases: relative viability (nuclei count vs DMSO), 5 days (fraction); higher = more cells survive
Cediranib + Lapatinib = compound: COc1cc2c(Oc3ccc4[nH]c(C)cc4c3F)ncnc2cc1OCCCN1CCCC1 [Cediranib] + CS(=O)(=O)CCNCc1ccc(-c2ccc3ncnc(Nc4ccc(OCc5cccc(F)c5)c(Cl)c4)c3c2)o1 [Lapatinib] (partner 2 µM)
How it was run: (§1)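 Lung cancer cell lines, seeded in 1536-well plates, were treated the following day by pin tool with a single drug or with five library-drug doses (not always all listed) in √10 steps on top of a fixed anchor-drug dose. Cells were fixed and nuclei stained in one step after 5 days, and nuclei were counted. Relative viability is the nuclei count for treated wells divided by that for vehicle wells, reported as medians of duplicate plates.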

Decitabine + Pemetrexed = compound: Nc1ncn([C@H]2C[C@H](O)[C@@H](CO)O2)c(=O)n1 [Decitabine] + Nc1nc2[nH]cc(CCc3ccc(C(=O)N[C@@H](CCC(=O)O)C(=O)O)cc3)c2c(=O)[nH]1 [Pemetrexed] (partner 0.2 µM)
How it was run: as §1

[1] = compound: O=C(C[C@H]1NCCC[C@@H]1O)Cn1cnc2cc(Br)c(Cl)cc2c1=O (racemic) [Halofuginone] + CS(=O)(=O)N1CCN(Cc2cc3nc(-c4cccc5[nH]ncc45)nc(N4CCOCC4)c3s2)CC1 [Pictilisib] (partner 1 µM)
How it was run: as §1

[2] = compound: O=C(C[C@H]1NCCC[C@@H]1O)Cn1cnc2cc(Br)c(Cl)cc2c1=O (racemic) [Halofuginone] + Nc1nc2[nH]cc(CCc3ccc(C(=O)N[C@@H](CCC(=O)O)C(=O)O)cc3)c2c(=O)[nH]1 [Pemetrexed] (partner 0.2 µM)
How it was run: as §1

Cell Line	relative viability (Cediranib + Lapatinib; first compound 0.04 µM)	relative viability (Cediranib + Lapatinib; first compound 0.1265 µM)	relative viability (Cediranib + Lapatinib; first compound 0.4 µM)	relative viability (Cediranib + Lapatinib; first compound 1.265 µM)	relative viability (Cediranib + Lapatinib; first compound 4 µM)	relative viability (Decitabine + Pemetrexed; first compound 0.04 µM)	relative viability (Decitabine + Pemetrexed; first compound 0.1265 µM)	relative viability (Decitabine + Pemetrexed; first compound 0.4 µM)	relative viability (Decitabine + Pemetrexed; first compound 1.265 µM)	relative viability (Decitabine + Pemetrexed; first compound 4 µM)	relative viability ([1]; first compound 0.001 µM)	relative viability ([1]; first compound 0.003162 µM)	relative viability ([1]; first compound 0.01 µM)	relative viability ([1]; first compound 0.03162 µM)	relative viability ([1]; first compound 0.1 µM)	relative viability ([2]; first compound 0.001 µM)	relative viability ([2]; first compound 0.003162 µM)	relative viability ([2]; first compound 0.01 µM)	relative viability ([2]; first compound 0.03162 µM)	relative viability ([2]; first compound 0.1 µM)
HCC-78	1	0.703	0.634	0.662	0.695	0.902	1.18	0.874	0.825	0.864	0.216	0.193	0.206	0.21	0.221	0.906	0.926	0.885	0.937	0.889
HCC-366	1.08	0.479	0.983	0.957	1.23	0.16	0.115	0.0833	0.0595	0.0583	0.231	0.14	0.216	0.144	0.184	0.157	0.167	0.156	0.135	0.12
HCC-827	0.203	–	0.178	0.194	0.208	0.161	0.585	0.198	0.202	0.219	0.874	1.05	0.962	1.08	0.777	0.238	0.237	0.266	0.27	0.239
HOP-62	1.15	–	0.879	1.01	1.35	0.283	0.31	0.205	0.186	0.183	0.661	0.781	0.766	0.53	0.239	0.326	0.293	0.333	0.306	0.295
IA-LM	0.933	0.938	0.673	0.732	0.794	–	–	–	–	–	0.415	0.26	0.288	0.256	0.057	–	–	–	–	–
LC-2-ad	1.07	0.656	0.94	1.02	0.731	0.288	0.255	0.27	0.239	0.266	0.66	0.551	0.492	0.455	0.269	0.273	0.305	0.251	0.246	0.269
LCLC-97TM1	1.03	–	0.976	1.15	1.01	0.173	0.134	0.0965	0.125	0.13	0.289	0.216	0.179	0.201	0.14	0.183	0.156	0.189	0.16	0.153
LCLC-103H	–	–	–	–	–	0.426	0.362	0.284	0.379	0.333	0.627	0.605	0.601	0.668	0.685	0.479	0.362	0.455	0.443	0.498
LK-2	1.01	0.728	0.842	0.952	0.732	0.194	0.256	0.223	0.245	0.211	0.577	0.792	0.531	0.664	0.532	0.25	0.212	0.294	0.249	0.241
LOU-NH91	0.818	0.788	0.807	0.676	0.761	0.378	0.358	0.422	0.336	0.397	0.574	0.51	0.503	0.52	0.514	0.405	0.391	0.425	0.4	0.403
LU99A	1.14	–	0.936	0.877	1.06	0.149	0.157	0.182	0.202	0.167	0.405	0.361	0.294	0.308	0.242	0.218	0.157	0.16	0.163	0.181
LXF-289	0.988	0.816	0.852	0.958	0.846	0.69	0.541	0.423	0.315	0.297	0.748	0.859	0.795	0.813	0.495	0.913	0.972	0.849	0.864	0.788
NCI-H23	0.977	–	1.21	0.881	1.38	0.572	0.546	0.322	0.294	0.272	0.507	0.518	0.47	0.415	0.296	0.637	0.582	0.494	0.521	0.495
NCI-H441	–	–	–	–	–	0.214	0.203	0.184	0.197	0.235	0.482	0.466	0.489	0.415	0.385	0.28	0.263	0.205	0.261	0.246
NCI-H522	–	–	–	–	–	0.979	0.839	0.677	0.705	0.505	–	–	–	–	–	1.08	0.968	1.03	1.11	0.918
NCI-H727	0.774	0.483	0.733	0.919	0.732	–	–	–	–	–	0.428	0.444	0.359	0.421	0.194	–	–	–	–	–
NCI-H1299	1.02	0.958	0.995	0.933	0.983	–	–	–	–	–	1.01	0.806	0.619	0.232	0.077	–	–	–	–	–
NCI-H1648	–	–	–	–	–	0.637	0.582	0.506	0.483	0.435	–	–	–	–	–	0.666	0.732	0.92	0.796	0.91
NCI-H1703	1.36	1.07	0.361	0.354	0.341	–	–	–	–	–	0.252	0.264	0.247	0.214	0.193	–	–	–	–	–
NCI-H2342	–	–	–	–	–	0.734	0.733	0.731	0.642	0.663	–	–	–	–	–	0.801	0.702	0.774	0.76	0.727
SW 900	–	–	–	–	–	0.415	0.411	0.345	0.277	0.303	–	–	–	–	–	0.483	0.505	–	0.432	0.445
